{
  "source": "patent US9700516B2",
  "about": "“Compositions and methods for reducing overdose” (priority 2014, dated 2017)",
  "assay": "Effect of alkalinizing agents on the pH of a solution of 0.1 N HCl with a starting pH of 2.0",
  "format": "physicochemical",
  "experimental": "Various alkalinizing agents were added to a solution of 0.1 N HCl with a starting pH of 2.0 and the pH of the solution was tested at different time points.",
  "data": [
    {"smiles": "[O]=[Mg]", "note": "[MgO, magnesium oxide]", "values": [
      {"measurement": "pH", "setting": "40 mg per 320 mL, 0 min", "result": 2.01},
      {"measurement": "pH", "setting": "40 mg per 320 mL, 1 min", "result": 2.01},
      {"measurement": "pH", "setting": "40 mg per 320 mL, 2 min", "result": 2.03},
      {"measurement": "pH", "setting": "40 mg per 320 mL, 3 min", "result": 2.08},
      {"measurement": "pH", "setting": "40 mg per 320 mL, 4 min", "result": 2.10},
      {"measurement": "pH", "setting": "40 mg per 320 mL, 5 min", "result": 2.13},
      {"measurement": "pH", "setting": "40 mg per 320 mL, 6 min", "result": 2.16},
      {"measurement": "pH", "setting": "40 mg per 320 mL, 7 min", "result": 2.19},
      {"measurement": "pH", "setting": "40 mg per 320 mL, 8 min", "result": 2.22},
      {"measurement": "pH", "setting": "40 mg per 320 mL, 9 min", "result": 2.23},
      {"measurement": "pH", "setting": "40 mg per 320 mL, 10 min", "result": 2.24},
      {"measurement": "pH", "setting": "40 mg per 320 mL, 20 min", "result": 2.30},
      {"measurement": "pH", "setting": "40 mg per 320 mL, 30 min", "result": 2.33},
      {"measurement": "pH", "setting": "40 mg per 320 mL, 40 min", "result": 2.39},
      {"measurement": "pH", "setting": "40 mg per 320 mL, 50 min", "result": 2.34},
      {"measurement": "pH", "setting": "40 mg per 320 mL, 60 min", "result": 2.34},
      {"measurement": "pH", "setting": "80 mg per 320 mL, 0 min", "result": 1.99},
      {"measurement": "pH", "setting": "80 mg per 320 mL, 1 min", "result": 2.00},
      {"measurement": "pH", "setting": "80 mg per 320 mL, 2 min", "result": 2.02},
      {"measurement": "pH", "setting": "80 mg per 320 mL, 3 min", "result": 2.05},
      {"measurement": "pH", "setting": "80 mg per 320 mL, 4 min", "result": 2.06},
      {"measurement": "pH", "setting": "80 mg per 320 mL, 5 min", "result": 2.08},
      {"measurement": "pH", "setting": "80 mg per 320 mL, 6 min", "result": 2.10},
      {"measurement": "pH", "setting": "80 mg per 320 mL, 7 min", "result": 2.12},
      {"measurement": "pH", "setting": "80 mg per 320 mL, 8 min", "result": 2.13},
      {"measurement": "pH", "setting": "80 mg per 320 mL, 9 min", "result": 2.15},
      {"measurement": "pH", "setting": "80 mg per 320 mL, 10 min", "result": 2.17},
      {"measurement": "pH", "setting": "80 mg per 320 mL, 20 min", "result": 2.30},
      {"measurement": "pH", "setting": "80 mg per 320 mL, 30 min", "result": 2.40},
      {"measurement": "pH", "setting": "80 mg per 320 mL, 40 min", "result": 2.48},
      {"measurement": "pH", "setting": "80 mg per 320 mL, 50 min", "result": 2.55},
      {"measurement": "pH", "setting": "80 mg per 320 mL, 60 min", "result": 2.63},
      {"measurement": "pH", "setting": "80 mg powder/200 ml, 4 min", "result": 6.21},
      {"measurement": "pH", "setting": "80 mg powder/200 ml, 5 min", "result": 6.67},
      {"measurement": "pH", "setting": "80 mg powder/200 ml, 6 min", "result": 7.22},
      {"measurement": "pH", "setting": "80 mg powder/200 ml, 7 min", "result": 7.98},
      {"measurement": "pH", "setting": "80 mg powder/200 ml, 8 min", "result": 8.42},
      {"measurement": "pH", "setting": "80 mg powder/200 ml, 9 min", "result": 8.44},
      {"measurement": "pH", "setting": "80 mg powder/200 ml, 10 min", "result": 10.13},
      {"measurement": "pH", "setting": "80 mg powder/200 ml, 20 min", "result": 10.13},
      {"measurement": "pH", "setting": "80 mg powder/200 ml, 30 min", "result": 8.66},
      {"measurement": "pH", "setting": "80 mg powder/200 ml, 40 min", "result": 10.13},
      {"measurement": "pH", "setting": "80 mg, Granular/200 ml, 4 min", "result": 2.75},
      {"measurement": "pH", "setting": "80 mg, Granular/200 ml, 5 min", "result": 3.37},
      {"measurement": "pH", "setting": "80 mg, Granular/200 ml, 6 min", "result": 5.50},
      {"measurement": "pH", "setting": "80 mg, Granular/200 ml, 7 min", "result": 6.04},
      {"measurement": "pH", "setting": "80 mg, Granular/200 ml, 8 min", "result": 6.38},
      {"measurement": "pH", "setting": "80 mg, Granular/200 ml, 9 min", "result": 6.74},
      {"measurement": "pH", "setting": "80 mg, Granular/200 ml, 10 min", "result": 7.05},
      {"measurement": "pH", "setting": "80 mg, Granular/200 ml, 20 min", "result": 7.50},
      {"measurement": "pH", "setting": "80 mg, Granular/200 ml, 30 min", "result": 9.14},
      {"measurement": "pH", "setting": "100 mg powder/200 ml, 4 min", "result": 2.37},
      {"measurement": "pH", "setting": "100 mg powder/200 ml, 5 min", "result": 2.37},
      {"measurement": "pH", "setting": "100 mg powder/200 ml, 6 min", "result": 3.52},
      {"measurement": "pH", "setting": "100 mg powder/200 ml, 7 min", "result": 3.52},
      {"measurement": "pH", "setting": "100 mg powder/200 ml, 8 min", "result": 3.52},
      {"measurement": "pH", "setting": "100 mg powder/200 ml, 9 min", "result": 3.52},
      {"measurement": "pH", "setting": "100 mg powder/200 ml, 10 min", "result": 3.52},
      {"measurement": "pH", "setting": "100 mg powder/200 ml, 20 min", "result": 5.00},
      {"measurement": "pH", "setting": "100 mg powder/200 ml, 30 min", "result": 6.50},
      {"measurement": "pH", "setting": "100 mg powder/200 ml, 40 min", "result": 8.09},
      {"measurement": "pH", "setting": "120 mg powder/200 ml, 4 min", "result": 6.97},
      {"measurement": "pH", "setting": "120 mg powder/200 ml, 5 min", "result": 8.21},
      {"measurement": "pH", "setting": "120 mg powder/200 ml, 6 min", "result": 8.21},
      {"measurement": "pH", "setting": "120 mg powder/200 ml, 7 min", "result": 8.21},
      {"measurement": "pH", "setting": "120 mg powder/200 ml, 8 min", "result": 8.21},
      {"measurement": "pH", "setting": "120 mg powder/200 ml, 9 min", "result": 8.21},
      {"measurement": "pH", "setting": "120 mg powder/200 ml, 10 min", "result": 8.21},
      {"measurement": "pH", "setting": "120 mg powder/200 ml, 20 min", "result": 8.21},
      {"measurement": "pH", "setting": "120 mg powder/200 ml, 30 min", "result": 8.21},
      {"measurement": "pH", "setting": "160 mg per 320 mL, 0 min", "result": 1.99},
      {"measurement": "pH", "setting": "160 mg per 320 mL, 1 min", "result": 2.05},
      {"measurement": "pH", "setting": "160 mg per 320 mL, 2 min", "result": 2.14},
      {"measurement": "pH", "setting": "160 mg per 320 mL, 3 min", "result": 2.24},
      {"measurement": "pH", "setting": "160 mg per 320 mL, 4 min", "result": 2.35},
      {"measurement": "pH", "setting": "160 mg per 320 mL, 5 min", "result": 2.47},
      {"measurement": "pH", "setting": "160 mg per 320 mL, 6 min", "result": 2.60},
      {"measurement": "pH", "setting": "160 mg per 320 mL, 7 min", "result": 2.71},
      {"measurement": "pH", "setting": "160 mg per 320 mL, 8 min", "result": 2.83},
      {"measurement": "pH", "setting": "160 mg per 320 mL, 9 min", "result": 2.95},
      {"measurement": "pH", "setting": "160 mg per 320 mL, 10 min", "result": 3.07},
      {"measurement": "pH", "setting": "160 mg per 320 mL, 20 min", "result": 8.16},
      {"measurement": "pH", "setting": "160 mg per 320 mL, 30 min", "result": 9.30},
      {"measurement": "pH", "setting": "160 mg per 320 mL, 40 min", "result": 9.54},
      {"measurement": "pH", "setting": "160 mg per 500 mL, 0 min", "result": 1.98},
      {"measurement": "pH", "setting": "160 mg per 500 mL, 1 min", "result": 2.00},
      {"measurement": "pH", "setting": "160 mg per 500 mL, 2 min", "result": 2.02},
      {"measurement": "pH", "setting": "160 mg per 500 mL, 3 min", "result": 2.05},
      {"measurement": "pH", "setting": "160 mg per 500 mL, 4 min", "result": 2.07},
      {"measurement": "pH", "setting": "160 mg per 500 mL, 5 min", "result": 2.12},
      {"measurement": "pH", "setting": "160 mg per 500 mL, 6 min", "result": 2.15},
      {"measurement": "pH", "setting": "160 mg per 500 mL, 7 min", "result": 2.18},
      {"measurement": "pH", "setting": "160 mg per 500 mL, 8 min", "result": 2.22},
      {"measurement": "pH", "setting": "160 mg per 500 mL, 9 min", "result": 2.24},
      {"measurement": "pH", "setting": "160 mg per 500 mL, 10 min", "result": 2.27},
      {"measurement": "pH", "setting": "160 mg per 500 mL, 20 min", "result": 2.54},
      {"measurement": "pH", "setting": "160 mg per 500 mL, 30 min", "result": 2.62},
      {"measurement": "pH", "setting": "160 mg per 500 mL, 40 min", "result": 2.74},
      {"measurement": "pH", "setting": "160 mg per 500 mL, 50 min", "result": 2.86},
      {"measurement": "pH", "setting": "160 mg per 500 mL, 60 min", "result": 2.96},
      {"measurement": "effect on pH of the solution", "setting": "80-120 mg/200 ml powder and 80 mg granular/200 ml", "result": "rapidly raise the pH of the solution to neutral or higher"}
    ]}
  ]
}
